Values joined by “and” are separate entries in the source; they are usually repeats but may differ in a detail not shown here. Equal values may be shown once.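 Tested at 5 concentrations; 48 h exposure; 96-well plates; endpoints linearly interpolated, else capped at highest concentration. Abbreviation: GI50, concentration required for 50% inhibition of growth. At the TGI there is no net growth.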
Columns and labels:
Test in all cases: NCI anticancer screen, dose series, 48 h
SK-OV-3 ovarian = system: SK-OV-3 ovarian
M14 melanoma = system: M14 melanoma
ACHN renal = system: ACHN renal
A549 NSCLC = system: A549 NSCLC
SK-MEL-28 melanoma = system: SK-MEL-28 melanoma
RPMI-8226 leukemia = system: RPMI-8226 leukemia
CAKI-1 renal = system: CAKI-1 renal
NCI-H460 lung = system: NCI-H460 lung
OVCAR-5 ovarian = system: OVCAR-5 ovarian
SW-620 colon = system: SW-620 colon

SMILES	GI50 (SK-OV-3 ovarian)	TGI (SK-OV-3 ovarian) [µM]	GI50 (M14 melanoma)	TGI (M14 melanoma)	GI50 (ACHN renal) [µM]	TGI (ACHN renal) [µM]	GI50 (A549 NSCLC)	TGI (A549 NSCLC) [µM]	GI50 (SK-MEL-28 melanoma)	TGI (SK-MEL-28 melanoma) [µM]	GI50 (RPMI-8226 leukemia)	TGI (RPMI-8226 leukemia)	GI50 (CAKI-1 renal) [µM]	TGI (CAKI-1 renal) [µM]	GI50 (NCI-H460 lung)	TGI (NCI-H460 lung) [µM]	GI50 (OVCAR-5 ovarian)	TGI (OVCAR-5 ovarian) [µM]	GI50 (SW-620 colon)	TGI (SW-620 colon)
COc1cc(C(=O)Nc2cc(O)c(C/C=C(\C)CCC=C(C)C)c(O)c2)cc2c1O[C@]1(C)CC[C@@H](O)C(C)(C)[C@H]1C2	0.0926 µM and 0.114 µM	22.7	0.0984 µM and 0.0812 µM	4.76 µM and 1.91 µM	1.22	13.1	0.381 µM and 0.214 µM	13.9	0.178 µM and 0.629 µM	13.8	0.00911 µM and 0.0197 µM	0.0806 µM and 0.0958 µM	0.0394	11.9	0.083 µM and 0.101 µM	13.5	2.89 µM and 3.49 µM	21.6	0.0899 µM and 0.159 µM	1.84 µM and 15.6 µM
O=C(c1ccncc1)N1CCN(C2=NS(=O)(=O)c3ccccc3N2c2ccccc2)CC1	13.4 µM	> 100	13.3 µM	> 100 µM	11.1	53.6	20.6 µM	> 100	15.6 µM	38.7	35.5 µM	96.2 µM	30.3	88.5	2.59 µM	> 100	33.4 µM	> 100	15.5 µM	57.1 µM
CC#CC(=O)N[C@H]1CCCN(c2c(F)cc(C(N)=O)c3[nH]c(C)c(C)c23)C1	14.4 µM	59.6	18.6 µM	42 µM	16.4	42.8	21.3 µM	70.2	17.4 µM	35.6	16.5 µM	44.8 µM	13.4	34.1	18.1 µM	33.4	23 µM	88.5	19.8 µM	39 µM
O=C(NCCCCCCNC(=O)NC1OCC(O)C(O)C1O)NC1OCC(O)C(O)C1O (stereo not given)		> 100		> 100 µM		> 100		> 100		> 100		> 100 µM		> 100		> 100		> 100		> 100 µM
CSC1CC2C(CC1(C)SC)C2(C)C (stereo not given)		> 100		> 100 µM		> 100		> 100		> 100		93.4 µM		> 100		67		> 100		> 100 µM
CCCCC/C=C\C/C=C/CCCCCCCCNC(=O)Nc1ccc([N+](=O)[O-])cc1	40.7 µM	> 100	6.9 µM	77.5 µM	6.8	> 100	38.2 µM	> 100	32.7 µM	> 100	4.54 µM	39.5 µM	5.9	> 100	21.9 µM	> 100	30.8 µM	> 100	5.51 µM	> 100 µM
Cc1ccc2nc(CC(=O)c3ccc4ccccc4c3)c(=O)[nH]c2c1		> 100		> 100 µM		> 100		> 100		> 100		> 100 µM		> 100		> 100		> 100		> 100 µM
C/C=C(\C)C(=O)OC1C2C(C)C(=O)OC2C(O)C(C)C2C=CC(=O)C21C (stereo not given)		39.6		31.3 µM		26.8		61.3		28.1		32.1 µM		28.4		20.6		38.8		28.7 µM
COC(=O)c1cc(NC(=O)CN(CCN(CC(=O)O)CC(=O)Nc2ccc(O)c(C(=O)OC)c2)CC(=O)O)ccc1O	45.5 µM	> 100	41.9 µM	> 100 µM	36.7	> 100	64.8 µM	> 100	> 100 µM	> 100	> 100 µM	> 100 µM	32	> 100	28.3 µM	> 100	> 100 µM	> 100	74.9 µM	> 100 µM
NCC(=O)NC(CO)C(=O)O (stereo not given)		> 100		> 100 µM		> 100		> 100		> 100		> 100 µM		> 100		> 100		> 100		> 100 µM
COc1cc2c(cc1OC)C1(c3ccccc3)ON=C(c3ccccc3)N1CS2 (stereo not given)		> 100		> 100 µM		> 100		> 100		> 100		> 100 µM		> 100		> 100		> 100		> 100 µM
CS(=O)(=O)N(CC(=O)O)Cc1ccccc1		> 100		> 100 µM		> 100		> 100		> 100		> 100 µM		> 100		> 100		> 100		> 100 µM

— PubChem BioAssay (NCI)
